Converted amounts (≈) assume the structure as drawn. Where two headings read alike, the source gives them in different places. Bridge positions count the residues as written; N and C are the ends. Ends that are not written are not given here. Peptide text beside a SMILES is read from it.
Experiments:
E. coli ATCC 25922 = conditions: for MIC-E. coli (μM) 25922: Table 6; for MIC-E.Coli (μM) 25622: Table 9 lower part, c1
[1] = test system: N. benthamiana mesophyll protoplasts
Pseudomonas WT 27853 = conditions: for MIC-human (μm) Pseudomonas WT 27853: Table 9 lower part, c5
[2] = test system: X. fastidiosa (PD strain)
Salmonella = conditions: for MIC-human (μm) Salmonella: Table 9 lower part, c4
E.Coli 14028 = conditions: Table 9 lower part, c2
[3] = test system: P11-resistant E. coli ATCC 25922
[4] = test system: P11-resistant E. coli BL21
[5] = test system: X. fastidiosa (Xf) in infected grapevines; conditions: in vivo
[6] = test system: Xanthomonas Euvesicatoria 11633
[7] = test system: Pseudomonas Resistant BAA-2114
[8] = test system: Xanthomonas Perforans BAA983
[9] = test system: human cells (red blood cells, immune cells HL-60, lung/skin epithelial cells)
[10] = test system: human and plant gram-negative bacteria
E. coli BL21 = conditions: Table 3, BL21-WT
E. coli K12 = conditions: Table 3, K12-WT
[11] = test system: P11-resistant E. coli K12; conditions: Table 3, K12-R

CC[C@H](C)[C@@H]1NC(=O)[C@H](CCCCN)NC(=O)[C@H](CC(C)C)NC(=O)[C@H]([C@@H](C)CC)NC(=O)[C@H](CCCCN)NC(=O)[C@H](CCCCN)NC(=O)[C@H]([C@@H](C)CC)NC(=O)[C@H](CC(C)C)NC(=O)[C@H](CCCCN)NC(=O)[C@H](CCCCN)NC(=O)[C@H](CCCNC(=N)N)NC(=O)CNC(=O)[C@@H]2CCCN2C(=O)CNC(=O)[C@H](CCCCN)NC(=O)[C@H](CCCCN)NC(=O)[C@H](CC(C)C)NC(=O)[C@H]([C@@H](C)CC)NC(=O)[C@H](CCCCN)NC(=O)[C@H](CCCCN)NC(=O)[C@H]([C@@H](C)CC)NC(=O)[C@H](CC(C)C)NC(=O)[C@H](CCCCN)NC(=O)[C@H]([C@@H](C)CC)NC(=O)[C@H](CC(C)C)NC(=O)[C@H](CCCNC(=N)N)NC(=O)CNC(=O)[C@@H]2CCCN2C(=O)CNC(=O)[C@H](CC(C)C)NC1=O [CYCLIC30P] (cyclo(GPGRKKLIKKILKILGPGRLIKLIKKILKK))
MIC-E. coli (μM) 25922 (E. coli ATCC 25922): 12 (2) μM
MIC-E.Coli (μM) 25622 (E. coli ATCC 25922): 12(2) μM

CC[C@H](C)[C@H](NC(=O)[C@H](CCCCN)NC(=O)[C@H](CC(C)C)NC(=O)[C@@H]1CSSC[C@H](NC(=O)[C@H](CC(C)C)NC(=O)[C@H](CCCCN)NC(=O)[C@@H](NC(=O)[C@@H](N)CC(C)C)[C@@H](C)CC)C(=O)N[C@@H](CCCCN)C(=O)N[C@@H](CCCCN)C(=O)N[C@@H]([C@@H](C)CC)C(=O)N[C@@H](CC(C)C)C(=O)N[C@@H](CCCCN)C(=O)N[C@@H](CCCCN)C(=O)NCC(=O)N2CCC[C@H]2C(=O)NCC(=O)N[C@@H](CCCNC(=N)N)C(=O)N[C@@H](CCCCN)C(=O)N[C@@H](CCCCN)C(=O)N[C@@H](CC(C)C)C(=O)N[C@@H]([C@@H](C)CC)C(=O)N[C@@H](CCCCN)C(=O)N[C@@H](CCCCN)C(=O)N1)C(=O)N[C@@H](CC(C)C)C(=O)O [CYS26P] (H-LIKLCKKILKKGPGRKKLIKKCLKIL-OH; disulfide 5-22)
phytotoxicity, viability of N. benthamiana mesophyll protoplasts [1]: low phytotoxcicity
MIC-human bacteria (μM) Pseudomonas WT (Pseudomonas WT 27853; Table 9 upper part, c6): >20 µM
toxicity to human erythrocytes (human erythrocytes): did not demonstrate toxicity
MIC (μM) X. fastidiosa (PD strain) [2]: >20 µM
MIC-E. coli (μM) 25922 (E. coli ATCC 25922): 4.3 ± 0.4 µM (≈ 12.9 µg/mL)
toxicity to HL60 cells (HL60 cells): did not demonstrate toxicity
MIC-human bacteria (μM) Salmonella (Salmonella; Table 9 upper part, c5): >20 µM

CC[C@H](C)[C@H](NC(=O)[C@H](CCCCN)NC(=O)[C@H](CC(C)C)NC(=O)[C@@H](NC(=O)[C@H](CCCCN)NC(=O)[C@H](CCCCN)NC(=O)[C@@H](NC(=O)[C@H](CC(C)C)NC(=O)[C@H](CCCCN)NC(=O)[C@@H](N)CCCCN)[C@@H](C)CC)[C@@H](C)CC)C(=O)N[C@@H](CC(C)C)C(=O)NC [Peptide 11P3, KKLIKKILKIL-(NHCH3)] (H-KKLIKKILKIL-NHMe)
MIC-E. coli (μM) 25922 (E. coli ATCC 25922): 3.7 ± 0.5 µM (≈ 5 µg/mL)

CC[C@H](C)[C@H](NC(=O)[C@H](CCCNC(=N)N)NC(=O)[C@H](CC(C)C)NC(=O)[C@@H](NC(=O)[C@H](CCCNC(=N)N)NC(=O)[C@H](CCCNC(=N)N)NC(=O)[C@@H](NC(=O)[C@H](CC(C)C)NC(=O)[C@H](CCCNC(=N)N)NC(=O)[C@@H](N)CCCNC(=N)N)[C@@H](C)CC)[C@@H](C)CC)C(=O)N[C@@H](CC(C)C)C(=O)NC [Peptide 11P5, RRLIRRILRIL-(NCH3)] (H-RRLIRRILRIL-NHMe; N-terminus and C-terminus assumed)
MIC-E. coli (μM) 25922 (E. coli ATCC 25922): 6.7 ± 0.9 µM (≈ 9.99 µg/mL)

EALRSRLEKRIYILYRDTPVVKSSSRQREELLRISLRELE [Peptide 40P1]
MIC-E. coli (μM) 25922 (E. coli ATCC 25922): >20 µM

ELLRRLLASLRRHDLLRGPGRELLRLLASLRRHDLLR [Peptide 38P1]
MIC-E. coli (μM) 25922 (E. coli ATCC 25922): 2.5 to 5 µM

HPLIKLIKKILKKGPGRKKLIKKILKILGH [Peptide 30P1]
MIC-E. coli (μM) 25922 (E. coli ATCC 25922): 0.9 to 1.25 µM

KEIVRRIEKFLRGPGRKRIVERIEKFLR [Peptide 28P8]
MIC-human (μm) Pseudomonas WT 27853 (Pseudomonas WT 27853): 5 to 10 µM
MIC-plant (μm) Xylela fastidiosa (grape) [2]: 1.25-2.5(2) μM
MIC-E. coli (μM) 25922 (E. coli ATCC 25922): 0.8 ± 0.1 µM
MIC-E.Coli (μM) 14028 (E.Coli 14028): 5 to 10 µM

KEIVRRIKEFLRGPGRKEIVRRIKEFLR [Peptide 28P7]
MIC-human (μm) Pseudomonas WT 27853 (Pseudomonas WT 27853): 5 to 10 µM
MIC-plant (μm) Xylela fastidiosa (grape) [2]: 2.5-5(2) μM
MIC-E. coli (μM) 25922 (E. coli ATCC 25922): 4.3 µM
MIC-E.Coli (μM) 25622 (E. coli ATCC 25922): 4.3 µM
MIC-E.Coli (μM) 14028 (E.Coli 14028): 20 µM

KKLIKKILKIL [Peptide P11, KKLIKKILKIL]
MIC (μM) X. fastidiosa (PD strain) [2]: 10 to 20 µM
MIC [3]: 192 ± 8.3 µM
MIC values ATCC [3]: 200 µM
MIC [4]: 194 ± 12.5 µM
MIC values BL21 ([4]; BL21): 194 µM

KKLIKKILKILGPGRKKLIKEILKILGPGRKKLIKKILKIL [Peptide 41P1]
MIC-E. coli (μM) 25922 (E. coli ATCC 25922): 4.50 ± 0.25 µM

KLIKLIKKILKKGPGRKKLIKKILKILK [Peptide 28P4]
MIC-human (μm) Pseudomonas WT 27853 (Pseudomonas WT 27853): 1.3 µM
MIC (μM) X. fastidiosa (PD strain) [2]: 3.0 ± 0.1 µM
MIC-E. coli (μM) 25922 (E. coli ATCC 25922): 2.1 µM
MIC-E.Coli (μM) 25622 (E. coli ATCC 25922): 2.1 µM
% Xf clearance from bark by qPCR [5]: completely clear
% Xf clearance from green leaves by qPCR [5]: completely clear
MIC-plant (μm) Xanthomonas Euvesicatoria 11633 [6]: 2.5 µM
MIC-human (μm) Pseudomonas Resistant BAA-2114 [7]: 2.5 µM
MIC-plant (μm) Xanthomonas Perforans BAA983 [8]: 2.5 µM
MIC-human (μm) Salmonella (Salmonella): 1.3 µM

KLIRLIREILRRGPGRRRLIREILRILK [Peptide 28P6]
MIC-human (μm) Pseudomonas WT 27853 (Pseudomonas WT 27853): 5 to 10 µM
MIC-plant (μm) Xylela fastidiosa (grape) [2]: 2.5-5(2) μM
MIC-E. coli (μM) 25922 (E. coli ATCC 25922): 4.8 µM
MIC-E.Coli (μM) 25622 (E. coli ATCC 25922): 4.8 µM
MIC-E.Coli (μM) 14028 (E.Coli 14028): 20 µM

KRIVQRIKDFLRGPGRKRIVQRIKDFLR [Peptide 28P2]
concentration toxic to human cells [9]: above 20 μM
MIC-E. coli (μM) 25922 (E. coli ATCC 25922): 6 (2) μM
MIC-E.Coli (μM) 25622 (E. coli ATCC 25922): 6(2) μM
MIC against one E. coli strain [10]: 6 µM
MICs for human and plant bacteria [10]: 1.3 to 3 µM

KRLIQRKRLIQRGPGRKRLIQRKRLIQR [Peptide 28P3]
MIC-human (μm) Pseudomonas WT 27853 (Pseudomonas WT 27853): >20 µM
MIC-E. coli (μM) 25922 (E. coli ATCC 25922): >40 µM
MIC-E.Coli (μM) 25622 (E. coli ATCC 25922): >40 µM
MIC-plant (μm) Xanthomonas Euvesicatoria 11633 [6]: 20 µM
MIC-human (μm) Pseudomonas Resistant BAA-2114 [7]: >20 µM
MIC-plant (μm) Xanthomonas Perforans BAA983 [8]: 20 µM
MIC-human (μm) Salmonella (Salmonella): >20 µM

LIKLIKKILKKGPGRKKLIKKILKIL [Peptide P26]
MIC (E. coli BL21): 1.95 ± 0.3 µM
phytotoxicity, viability of N. benthamiana mesophyll protoplasts [1]: low phytotoxcicity
toxicity to human erythrocytes (human erythrocytes): did not demonstrate toxicity
MIC (E. coli K12): 1.65 ± 0.3 µM
MIC (μM) X. fastidiosa (PD strain) [2]: 4.75 ± 0.25 µM
MIC-plant bacteria (μM) Xylela fastidiosa (grape) [2]: >20 µM
MIC (E. coli ATCC 25922; Table 3, ATCC-WT): 1.65 ± 0.3 µM
MIC-E. coli (μM) 25922 (E. coli ATCC 25922): 1.7 ± 0.2 µM
MIC [3]: 9.5 ± 0.7 µM
toxicity to HL60 cells (HL60 cells): did not demonstrate toxicity
MIC [11]: 4.0 ± 0.6 µM
MIC ([4]; BL21): 4.4 ± 0.3 µM

LIRLIRRILRRGPGRRRLIRRILRIL [Peptide 26P2]
MIC-E. coli (μM) 25922 (E. coli ATCC 25922): 1.3 to 2.5 µM

LIRLIRRILRRGPGRRRLIRRILRIL [Peptide 26P-1]
MIC (μM) X. fastidiosa (PD strain) [2]: 4.75 µM
MIC values ATCC [3]: 10 µM
MIC values BL21 ([4]; BL21): 4 µM

LIRLLRRILRRGPGRRRLIRRLLRIL [Peptide 26P3]
MIC-plant bacteria (μM) Xylela fastidiosa (grape) [2]: 4.8 µM

RKQLRELIERLLERIRKLGPGRREQLERLIERLERLIEKR [Peptide 40P3]
MIC-E. coli (μM) 25922 (E. coli ATCC 25922): >20 µM

RLLEKRLRRELERELRKQGPGRRLLEKRLRRELERELRKQ [Peptide 40P2]
MIC-E. coli (μM) 25922 (E. coli ATCC 25922): >20 µM
